These results are taken from patent EP4722207A1, “OXOISOINDOLINYL-SUBSTITUTED TETRAHYDROPYRIMIDINEDIONE DERIVATIVE AND USE THEREOF” (Gluetacs Therapeutics (Shanghai) Co., Ltd., priority 2023, dated 2024).

One assay deals with MV-4-11. The assay is described as follows: Cell viability assay (CellTiter-Meiluncell Luminescent), tumor cell proliferation, MV-4-11. The note with it: Homo sapiens, MV4-11, 96 h; for inhibition at 0.01 µM: read-out: Inhibition Rate at 10 nM (%); for inhibition at 0.5 µM: read-out: Inhibition Rate at 500 nM (%).
The subject of another assay is H2228. The assay is described as follows: Cell viability assay (CellTiter-Meiluncell Luminescent), tumor cell proliferation, H2228. The conditions noted are these: Homo sapiens, NCI-H2228, 96 h; for inhibition at 0.01 µM: read-out: Inhibition Rate at 10 nM (%); for inhibition at 0.5 µM: read-out: Inhibition Rate at 500 nM (%).
The target in assay [1] is T1, human Cereblon WT GST-tagged protein (Homo sapiens, UniProt Q96SW2).
T1 construct: purchased CISBIO 64BDCRBNPEH
The assay is described as follows: CRBN-binding affinity, CEREBLON BINDING kit (HTRF). The conditions noted are these: for inhibition at 0.5 µM: read-out: Inhibition Rate at 0.5 µM (%); for inhibition at 2 µM: read-out: Inhibition Rate at 2 µM (%). An excerpt:
The CEREBLON BINDING kits (specification: 10,000 tests; product number: Catalog # 64BDCRBNPEH; CISBIO company) was used to determine the CRBN binding ability of the compounds to be tested through a HTRF method (homogeneous time-resolved fluorescence). The specific methods are as follows: • 1. […] Specifically, diluent #9 (1X) solution was used as the diluent, and multiple concentration gradients were set. […] Into the 96-well plate, the diluted test compounds and corresponding detection reagents were added, resulting in final test compound concentrations of 2 µM and 0.5 µM, respectively. […] Then, 2.5 µL of human Cereblon WT GST-tagged protein solution was added to each well. Finally, 5 µL of the thoroughly mixed Thalidomide-Re reagent and GST Eu antibody working solution were added to each of the aforementioned wells. […] The blank control wells were sequentially added with 2.5 µL of diluent #9 (1X) solution, 2.5 µL of binding buffer, and 5 µL of thoroughly mixed Thalidomide-Re reagent and GST Eu antibody working solution. • 4. […] OD 620 nm control is the absorbance value of the blank control well at an emission wavelength of 620 nm. […] OD 620 nm Std0 is the absorbance value of the solvent control well at an emission wavelength of 620 nm.

The subject of a further assay is H292. The assay is described as follows: Cell viability assay (CellTiter-Meiluncell Luminescent), tumor cell proliferation, H292. The conditions noted are these: Homo sapiens, NCI-H292, 96 h; for inhibition at 0.01 µM: read-out: Inhibition Rate at 10 nM (%); for inhibition at 0.5 µM: read-out: Inhibition Rate at 500 nM (%).
The subject of a further assay is MDA-MB-231. The assay is described as follows: Cell viability assay (CellTiter-Meiluncell Luminescent), tumor cell proliferation, MDA-MB-231. The conditions noted are these: Homo sapiens, MDA-MB-231, 96 h; for inhibition at 0.01 µM: read-out: Inhibition Rate at 10 nM (%); for inhibition at 0.5 µM: read-out: Inhibition Rate at 500 nM (%).
The next assay addresses T2, CK1α (Homo sapiens, UniProt P48729+Q96SW2).
T2 construct: effects of the compounds of the present disclosure on the expression of target proteins in cells; endogenous in cells; host or cells: human PBMCs (hPBMCs)
The assay is described as follows: Western-blot assay, substrate protein degradation in hPBMCs: CK1α. Format: cell-based. The note with it: 24 hours of compound treatment, 50 nM and 500 nM.

Another assay addresses T3, IKZF1 (Homo sapiens, UniProt Q13422+Q96SW2).
T3 construct: effects of the compounds of the present disclosure on the expression of target proteins in cells; endogenous in cells; host or cells: human PBMCs (hPBMCs)
Briefly: Western-blot assay, substrate protein degradation in hPBMCs: IKZF1. Format: cell-based. The conditions noted are these: 24 hours of compound treatment, 50 nM and 500 nM.

A further assay deals with T4, IKZF3 (Homo sapiens, UniProt Q96SW2+Q9UKT9).
T4 construct: effects of the compounds of the present disclosure on the expression of target proteins in cells; endogenous in cells; host or cells: human PBMCs (hPBMCs)
Briefly: Western-blot assay, substrate protein degradation in hPBMCs: IKZF3. Format: cell-based. The conditions noted are these: 24 hours of compound treatment, 50 nM and 500 nM.

For a further assay, the target named is T5, IKZF2 (Homo sapiens, UniProt Q96SW2+Q9UKS7).
T5 construct: effects of the compounds of the present disclosure on the expression of target proteins in cells; endogenous in cells; host or cells: human PBMCs (hPBMCs)
Briefly: Western-blot assay, substrate protein degradation in hPBMCs: IKZF2. Format: cell-based. The conditions noted are these: 24 hours of compound treatment, 50 nM and 500 nM.

Another assay has as its target T6, GSPT1 (Homo sapiens, UniProt P15170+Q96SW2).
T6 construct: effects of the compounds of the present disclosure on the expression of target proteins in cells; endogenous in cells; host or cells: human PBMCs (hPBMCs)
The assay is described as follows: Western-blot assay, substrate protein degradation in hPBMCs: GSPT1. Format: cell-based. The conditions noted are these: 24 hours of compound treatment, 50 nM and 500 nM.

The target in a further assay is T7, WEE1 (Homo sapiens, UniProt P30291+Q96SW2).
T7 construct: effects of the compounds of the present disclosure on the expression of target proteins in cells; endogenous in cells; host or cells: human PBMCs (hPBMCs)
Briefly: Western-blot assay, substrate protein degradation in hPBMCs: WEE1. Format: cell-based. The conditions noted are these: 24 hours of compound treatment, 50 nM and 500 nM.

A further assay relates to MM.1S. The assay is described as follows: Cell viability assay (CellTiter-Meiluncell Luminescent), tumor cell proliferation, MM.1S. The conditions noted are these: Homo sapiens, MM1.S, 96 h, read-out: inhibitory activity (IC50, nM) against tumor cells proliferation, MM.1S.

pIC50: −log10 of the molar value.

T1 sequence (Q96SW2 whole entry): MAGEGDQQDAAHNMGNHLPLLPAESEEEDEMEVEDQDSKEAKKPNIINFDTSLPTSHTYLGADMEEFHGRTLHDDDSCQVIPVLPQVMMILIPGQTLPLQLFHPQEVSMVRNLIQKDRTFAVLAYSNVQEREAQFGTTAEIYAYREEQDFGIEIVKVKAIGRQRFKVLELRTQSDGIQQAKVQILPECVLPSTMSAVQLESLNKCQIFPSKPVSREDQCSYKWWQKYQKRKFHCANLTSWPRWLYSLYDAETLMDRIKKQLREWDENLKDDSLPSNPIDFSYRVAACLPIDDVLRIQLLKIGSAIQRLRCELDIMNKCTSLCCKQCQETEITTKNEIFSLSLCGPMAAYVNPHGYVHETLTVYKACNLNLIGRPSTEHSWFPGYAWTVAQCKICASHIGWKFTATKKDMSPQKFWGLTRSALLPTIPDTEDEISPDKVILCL
T6 sequence (P15170 whole entry): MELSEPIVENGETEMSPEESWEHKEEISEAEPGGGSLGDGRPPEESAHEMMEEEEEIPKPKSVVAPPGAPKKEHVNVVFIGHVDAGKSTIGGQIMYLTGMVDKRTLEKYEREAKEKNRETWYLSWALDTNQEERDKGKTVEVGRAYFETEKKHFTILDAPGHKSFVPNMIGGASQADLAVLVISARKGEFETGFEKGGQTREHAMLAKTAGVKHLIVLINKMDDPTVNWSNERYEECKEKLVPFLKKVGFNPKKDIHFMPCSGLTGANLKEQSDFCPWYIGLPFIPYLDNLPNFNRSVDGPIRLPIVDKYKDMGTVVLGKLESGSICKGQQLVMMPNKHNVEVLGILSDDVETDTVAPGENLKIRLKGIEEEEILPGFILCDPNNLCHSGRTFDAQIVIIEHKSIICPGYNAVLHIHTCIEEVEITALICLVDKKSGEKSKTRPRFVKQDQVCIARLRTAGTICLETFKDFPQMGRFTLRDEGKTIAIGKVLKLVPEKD
T6 sequence (Q96SW2 whole entry): as the sequence (Q96SW2 whole entry) above
T6 sequence (Q16531 whole entry partner): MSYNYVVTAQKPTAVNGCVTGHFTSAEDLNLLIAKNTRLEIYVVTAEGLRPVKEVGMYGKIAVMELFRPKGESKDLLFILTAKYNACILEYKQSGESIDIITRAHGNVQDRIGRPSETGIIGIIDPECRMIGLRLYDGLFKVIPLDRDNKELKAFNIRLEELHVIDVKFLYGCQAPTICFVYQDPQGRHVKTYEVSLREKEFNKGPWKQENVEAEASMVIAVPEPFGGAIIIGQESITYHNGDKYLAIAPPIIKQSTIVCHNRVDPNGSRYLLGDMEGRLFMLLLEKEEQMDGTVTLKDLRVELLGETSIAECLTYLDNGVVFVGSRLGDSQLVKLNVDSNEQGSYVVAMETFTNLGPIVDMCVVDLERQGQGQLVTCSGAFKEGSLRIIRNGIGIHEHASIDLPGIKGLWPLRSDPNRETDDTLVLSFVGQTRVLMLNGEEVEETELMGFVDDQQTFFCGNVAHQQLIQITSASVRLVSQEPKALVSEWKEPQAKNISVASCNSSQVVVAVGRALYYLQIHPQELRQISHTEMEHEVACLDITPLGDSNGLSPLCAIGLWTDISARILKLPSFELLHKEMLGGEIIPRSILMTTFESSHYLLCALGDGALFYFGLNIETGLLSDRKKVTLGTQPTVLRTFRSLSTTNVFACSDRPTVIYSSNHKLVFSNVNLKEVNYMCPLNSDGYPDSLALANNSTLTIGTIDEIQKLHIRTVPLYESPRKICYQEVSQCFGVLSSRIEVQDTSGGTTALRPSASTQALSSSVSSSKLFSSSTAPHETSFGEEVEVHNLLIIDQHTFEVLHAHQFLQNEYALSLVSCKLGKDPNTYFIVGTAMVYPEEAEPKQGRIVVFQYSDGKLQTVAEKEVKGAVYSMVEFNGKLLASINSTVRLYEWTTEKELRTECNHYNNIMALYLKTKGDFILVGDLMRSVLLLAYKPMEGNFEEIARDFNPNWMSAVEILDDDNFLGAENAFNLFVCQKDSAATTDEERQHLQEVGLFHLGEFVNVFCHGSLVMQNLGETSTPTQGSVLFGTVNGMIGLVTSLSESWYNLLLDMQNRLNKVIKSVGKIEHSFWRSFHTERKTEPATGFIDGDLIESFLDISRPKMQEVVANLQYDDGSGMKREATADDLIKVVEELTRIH
T2 sequence (P48729 whole entry): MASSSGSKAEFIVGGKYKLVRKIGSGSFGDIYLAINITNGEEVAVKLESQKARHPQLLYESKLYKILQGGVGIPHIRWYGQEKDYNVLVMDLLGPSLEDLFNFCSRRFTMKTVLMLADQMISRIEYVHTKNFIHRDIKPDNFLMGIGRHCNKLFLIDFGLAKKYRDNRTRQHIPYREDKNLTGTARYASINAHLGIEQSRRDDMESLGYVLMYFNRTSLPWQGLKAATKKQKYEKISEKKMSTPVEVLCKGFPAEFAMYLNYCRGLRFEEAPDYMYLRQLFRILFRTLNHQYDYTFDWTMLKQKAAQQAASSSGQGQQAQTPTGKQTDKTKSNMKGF
T2 sequence (Q96SW2 whole entry): as the sequence (Q96SW2 whole entry) above
T2 sequence (Q16531 whole entry partner): as the sequence (Q16531 whole entry partner) above
T5 sequence (Q9UKS7 whole entry): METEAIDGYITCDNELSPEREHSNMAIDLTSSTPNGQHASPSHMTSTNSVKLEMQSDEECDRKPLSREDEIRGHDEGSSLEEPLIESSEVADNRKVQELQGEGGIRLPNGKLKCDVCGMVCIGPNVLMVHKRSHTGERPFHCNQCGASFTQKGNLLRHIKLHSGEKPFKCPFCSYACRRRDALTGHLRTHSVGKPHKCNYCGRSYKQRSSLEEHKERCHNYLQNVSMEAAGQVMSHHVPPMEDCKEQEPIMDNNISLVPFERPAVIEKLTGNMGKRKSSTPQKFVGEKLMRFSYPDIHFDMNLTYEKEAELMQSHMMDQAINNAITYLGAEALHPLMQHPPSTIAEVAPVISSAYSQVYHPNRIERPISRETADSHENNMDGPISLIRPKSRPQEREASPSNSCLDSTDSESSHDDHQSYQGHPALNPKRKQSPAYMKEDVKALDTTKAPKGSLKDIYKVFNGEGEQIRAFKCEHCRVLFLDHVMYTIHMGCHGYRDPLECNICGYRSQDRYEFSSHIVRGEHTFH
T5 sequence (Q96SW2 whole entry): as the sequence (Q96SW2 whole entry) above
T5 sequence (Q16531 whole entry partner): as the sequence (Q16531 whole entry partner) above
T7 sequence (P30291 whole entry): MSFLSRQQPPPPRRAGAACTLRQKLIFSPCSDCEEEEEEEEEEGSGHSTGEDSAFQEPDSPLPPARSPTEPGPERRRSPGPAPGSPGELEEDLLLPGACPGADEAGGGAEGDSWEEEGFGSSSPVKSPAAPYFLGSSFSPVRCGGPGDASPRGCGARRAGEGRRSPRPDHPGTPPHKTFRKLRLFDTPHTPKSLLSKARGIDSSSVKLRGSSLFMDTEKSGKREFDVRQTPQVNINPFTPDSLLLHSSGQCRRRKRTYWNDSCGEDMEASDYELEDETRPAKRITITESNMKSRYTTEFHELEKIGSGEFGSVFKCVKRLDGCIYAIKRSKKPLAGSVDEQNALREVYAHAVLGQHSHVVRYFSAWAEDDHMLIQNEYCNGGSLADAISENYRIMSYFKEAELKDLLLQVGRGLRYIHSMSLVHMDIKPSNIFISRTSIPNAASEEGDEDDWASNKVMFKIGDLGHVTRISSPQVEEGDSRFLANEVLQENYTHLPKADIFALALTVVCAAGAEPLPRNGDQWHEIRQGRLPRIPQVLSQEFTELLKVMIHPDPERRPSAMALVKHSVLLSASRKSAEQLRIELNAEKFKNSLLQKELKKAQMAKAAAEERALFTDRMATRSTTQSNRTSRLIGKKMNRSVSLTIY
T7 sequence (Q96SW2 whole entry): as the sequence (Q96SW2 whole entry) above
T7 sequence (Q16531 whole entry partner): as the sequence (Q16531 whole entry partner) above
T4 sequence (Q9UKT9 whole entry): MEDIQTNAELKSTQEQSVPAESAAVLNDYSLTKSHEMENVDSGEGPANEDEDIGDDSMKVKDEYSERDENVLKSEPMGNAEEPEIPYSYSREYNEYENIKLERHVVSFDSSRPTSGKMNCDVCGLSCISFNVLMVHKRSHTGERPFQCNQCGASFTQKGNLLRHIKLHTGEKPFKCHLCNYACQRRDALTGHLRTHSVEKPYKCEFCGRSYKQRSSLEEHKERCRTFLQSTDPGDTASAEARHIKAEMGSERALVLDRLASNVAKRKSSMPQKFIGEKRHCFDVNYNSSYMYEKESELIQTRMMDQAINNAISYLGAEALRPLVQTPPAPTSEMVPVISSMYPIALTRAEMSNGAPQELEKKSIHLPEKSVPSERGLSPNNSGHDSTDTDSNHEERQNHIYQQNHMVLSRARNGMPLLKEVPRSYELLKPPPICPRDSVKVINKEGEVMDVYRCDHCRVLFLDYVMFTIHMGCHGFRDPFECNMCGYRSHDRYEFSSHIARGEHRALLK
T4 sequence (Q96SW2 whole entry): as the sequence (Q96SW2 whole entry) above
T4 sequence (Q16531 whole entry partner): as the sequence (Q16531 whole entry partner) above
Procedure for H2228: The tumor cells used herein were cultured in a cell culture medium listed in table 2 at 37°C in an incubator with 5% CO2. Prior to experimentation, all cell lines used were correctly identified by STR profiling, and tested negative for mycoplasma contamination using a mycoplasma detection kit through routine screenings.
On the following day, the test compounds of the present disclosure were subjected to serial dilution. […] Subsequently, 0.5 µL of the test compound dilution was transferred into the 96-well plate containing the cells, with each well containing 100 µL of cell culture medium. […] Into the 96-well plate, the diluted test compounds and corresponding detection reagents were added, resulting in final test compound concentrations of 500 nM and 10 nM, respectively. The experimental procedure is described below using the diluted 2 µM test compound as an example.
After the cells were treated with the compounds of the present disclosure for a specified period, the cell viability assay reagent was added to the culture medium according to the kit's instructions to determine cell viability. […] All controls were treated using the same procedure as the compounds of the present disclosure. The growth inhibition curves for the compounds of the present disclosure were plotted using Prism GraphPad software, and the IC50 values were calculated therefrom.

For `O=C1CCN(N2Cc3cc(CN4CC=C(c5ncnc6scc(-c7ccccc7)c56)CC4)ccc3C2=O)C(=O)N1` [GT-08174, 1-(1-oxo-5-((4-(5-phenylthieno[2,3-d]pyrimidin-4-yl)-3,6-dihydropyridin-1(2H)-yl)methyl)isoindolin-2-yl)dihydropyrimidine-2,4(1H,3H)-dione], the inhibition at 0.01 µM was 25 to 30% in the assay with MV-4-11, 15 to 20% with H2228, 10 to 15% in the assay with H292 and 18 to 25% in the assay on MDA-MB-231. Besides, the inhibition at 0.5 µM in the assay with MV-4-11 lay in the range of 10 to 18%; with H2228, 20 to 25%; in [1], 20 to 30%; with H292, 20 to 40%; with MDA-MB-231, 25 to 40%. In assay [1], the inhibition at 2 µM was 53 to 60%.
In the case of `Cc1nc(N2CCN(Cc3ccc4c(c3)CN(N3CCC(=O)NC3=O)C4=O)CC2)c2c3c(sc2n1)CCC3` [GT-08080, 1-(5-((4-(2-methyl-6,7-dihydro-5H-cyclopenta[4,5]thieno[2,3-d]pyrimidin-4-yl)piperazin-1-yl)methyl)-1-oxoisoindolin-2-yl)dihydropyrimidine-2,4(1H,3H)-dione], on CK1α, the “substrate protein remaining % CK1α” value was “A (0% ≤ substrate protein remaining % ≤ 80%)”. Further, the “substrate protein remaining % IKZF1” value at IKZF1 is “B (80%< substrate protein remaining %≤ 100%)”. Also, the inhibition at 0.01 µM in the assay on H2228 lay in the range of 30 to 40%; in the assay on H292 it was 40 to 60%; in the assay on MDA-MB-231 it was 18 to 25%. The inhibition at 0.5 µM in the assay on H2228 was in the range of 20 to 25%; in assay [1], 20 to 30%; in the assay with H292, 20 to 40%; in the assay with MDA-MB-231, 15 to 18%. Moreover, the inhibition at 2 µM in [1] was 53 to 60%. Moreover, at IKZF3, the “substrate protein remaining % IKZF3” value is “B (80%< substrate protein remaining %≤ 100%)”. For the same molecule, the “substrate protein remaining % IKZF2” value at IKZF2 was “B (80%< substrate protein remaining %≤ 100%)”. For the same molecule, the “substrate protein remaining % GSPT1” value at GSPT1 is “A (0% ≤ substrate protein remaining % ≤ 80%)”. The “substrate protein remaining % WEE1” value at WEE1 was “A (0% ≤ substrate protein remaining % ≤ 80%)”.
In the case of `N#Cc1ccc(N2CCN(Cc3ccc(COc4cccc5c4CN(N4CCC(=O)NC4=O)C5=O)cc3)CC2)c(F)c1` [GT-06132, 4-(4-(4-(((2-(2,4-dioxotetrahydropyrimidin-1(2H)-yl)-1-oxoisoindolin-4-yl)oxy)methyl)benzyl)piperazin-1-yl)-3-fluorobenzonitrile], the IC50 in the assay on MM.1S was in the range of 100 to 300 nM. In assay [1] (3 hours at room temperature), this molecule gave a pIC50 of 5.82 to 6.00.
As to `Cc1nc(N2CCN(Cc3ccc4c(c3)CN(N3CCC(=O)NC3=O)C4=O)CC2)c2c(-c3ccccc3)csc2n1` [GT-08066, 1-(5-((4-(2-methyl-5-phenylthieno[2,3-d]pyrimidin-4-yl)piperazin-1-yl)methyl)-1-oxoisoindolin-2-yl)dihydropyrimidine-2,4(1H,3H)-dione], at CK1α, the “substrate protein remaining % CK1α” value is listed as “A (0% ≤ substrate protein remaining % ≤ 80%)”. The “substrate protein remaining % IKZF1” value at IKZF1 is given as “B (80%< substrate protein remaining %≤ 100%)”. Also, the inhibition at 0.01 µM in the assay on MV-4-11 lay in the range of 18 to 25%; with H292 it was 20 to 40%; with MDA-MB-231 it was 15 to 18%. Besides, the inhibition at 0.5 µM was in the range of 10 to 18% with MV-4-11, 20 to 30% in assay [1], 20 to 40% in the assay with H292 and 15 to 18% with MDA-MB-231. The inhibition at 2 µM in [1] was in the range of 60 to 80%. Besides, on IKZF3, the “substrate protein remaining % IKZF3” value is recorded as “B (80%< substrate protein remaining %≤ 100%)”. Besides, on IKZF2, the “substrate protein remaining % IKZF2” value is given as “A (0% ≤ substrate protein remaining % ≤ 80%)”. For the same molecule, on GSPT1, the “substrate protein remaining % GSPT1” value was “B (80%< substrate protein remaining %≤ 100%)”. Moreover, on WEE1, the “substrate protein remaining % WEE1” value was “B (80%< substrate protein remaining %≤ 100%)”.
